The values that follow come from patent US20040102383A1, “Growth inhibition and eradication of solid tumors using neuroendocrine resetting therapy and photodynamic therapy” (priority 1996, published 2004).

In series [1] the test system is EMT-6 cells. In words: EMT-6 implanted tumor mouse model: PDT with EtNBS with or without melatonin (Example 5). Format: in vivo, Balb/c mice. The method, then:
Adult (6-7 wk old) male Balb/c mice are injected subcutaneously with EMT-6 cells (1.7×10^6 cells) on the hind quarter and are divided into four groups (n=10 per group) and are treated as follows: group 1 receives photodynamic therapy (PDT) at 14 days after tumor inoculation. PDT consists of subcutaneously injecting a benzophenothiazine photosensitizer (EtNBS)(7.5 mg/kg of body weight) and 3 hrs later irradiating the tumor with 652 nm light at a power density of 50 mW/cm^2 and a total energy of 100 J/cm^2. Group 2 receives intraperitoneal melatonin (8 mg/kg) at 10 hours after light onset starting at 7 days after tumor inoculation and continuing for 14 days. Group 3 receives both PDT (as described above) and intraperitoneal melatonin (as described above). Group 4 remains untreated (control). Fourteen days following PDT tumor volume is determined in all animals.

The subject of series [2] is EMT-6 cells derived from a murine mammary sarcoma. The series is described as follows: EMT-6 implanted tumor mouse model: PDT with EtNBS with or without timed prolactin (Examples 1-2). It counts as in vivo, Balb/c mice. The procedure:
Adult (6-7 wk old) male Balb/c mice were subcutaneously injected with EMT-6 cells derived from a murine mammary sarcoma (1.7×10^6 cells) on the hind quarter and were divided into four groups (n=10 per group) and treated as follows: Group 1 (D+L) received photodynamic therapy at 14 days after tumor inoculation. Photodynamic therapy consisted of subcutaneously injecting a benzophenothiazine photosensitizer (EtNBS, FIG. 7)(7.5 mg/kg of body weight) and 3 hrs later irradiating the tumor with 652 nm light at a power density of 150 mW/cm2 and a total energy of 100 J/cm^2. Group 2 (PRL) received intraperitoneal ovine prolactin (20 mcg/mouse) at 10 hours after light onset starting at 7 days after tumor inoculation and continuing for 14 days. Group 3 (D+L+PRL) received both PDT (as described above) and prolactin (as described above). Group 4 (CON) remained untreated (control). Fourteen days following PDT tumor volume was determined in all animals.
Example 1 was repeated with different PDT power density and energy characteristics (for groups 2 and 3) which better optimize the PDT effect. […] Under these conditions, tumor “cure” (tumor-free for at least 90 days) of 4-8 mm diameter tumors can be achieved in 70-100% of the cases largely dependent upon the tumor size at the time of PDT. However, if intraperitoneal prolactin administration (20 mcg/mouse/day at 10 hours after light onset) is added to PDT treatment (starting from the day of tumor cell inoculation), then the tumor cure rate is 100%.
The typical response observed using PDT alone with the PDT parameters employed are (in sequence): 1) an inflammation of the photoirradiated spot encompassing the tumor within about 30 minutes which increases to a maximum inflammation at about 3-5 hours; 2) inflammation completely subsides in 48-72 hours leaving noticeable tumor which takes 14 days to regress completely. Eschar formation occurs at 24-48 hours.
At 4-7 days the irradiated area has healed completely. This response cannot be obtained with PDT or prolactin alone.

The test system of series [3] is EMT-6 cells. In words: EMT-6 implanted tumor mouse model: PDT with EtNBS with or without bromocriptine and melatonin (Example 6). Format: in vivo, Balb/c mice. The method, then: (§1) Adult (6-7 wk old) male Balb/c mice are subcutaneously injected with EMT-6 cells (1.7×10^6 cells) on the hind quarter and are divided into four groups (n=10 per group) and are treated as follows: group 1 receives photodynamic therapy (PDT) at 14 days after tumor inoculation. PDT consists of subcutaneously injecting a benzophenothiazine photosensitizer (EtNBS)(7.5 mg/kg of body weight) and 3 hrs later irradiating the tumor with 652 nm light at a power density of 50 mW/cm^2 and a total energy of 100 J/cm^2. Group 2 receives intraperitoneal melatonin (8 mg/kg) at 10 hours after light onset and intraperitoneal bromocriptine (50 mcg/mouse) at 0 hours after light onset starting at 7 days after tumor inoculation and continuing for 14 days. Group 3 receives both PDT (as described above) and intraperitoneal bromocriptine and intraperitoneal melatonin (as described above). Group 4 remains untreated (control). Fourteen days following PDT tumor volume is determined in all animals.

The test system of series [4] is EMT-6 cells. The series is described as follows: EMT-6 implanted tumor mouse model: PDT with EtNBS with or without bromocriptine (Example 4). It counts as in vivo, Balb/c mice. The following applies: PDT alone (EtNBS 7.5 mg/kg sc, 652 nm, 50 mW/cm2, 100 J/cm^2). The method, then:
as §1, with “mW/cm2” for “mW/cm^2”, “receives” for “receives intraperitoneal melatonin (8 mg/kg) at 10 hours after light onset and”, “bromocriptine” for “bromocriptine and intraperitoneal melatonin”

For series [5] the following is noted: in vivo; cited from earlier work.
A further series relates to immune responses. The conditions noted are these: timed daily administration within a specific window of time; no effect outside it; cited from earlier work.
Series [6] relates to EMT-6 cells derived from a murine mammary sarcoma. In words: EMT-6 implanted tumor mouse model: PDT with Dye 4-115 with or without timed prolactin (Example 3). Format: in vivo, Balb/c mice. The method, then:
Adult (6-7 wk old) male Balb/c mice are subcutaneously injected with EMT-6 cells derived from a murine mammary sarcoma (1.7×10^6 cells) on the hind quarter and are divided into four groups (n=10 per group) and are treated as follows: group 1 receives photodynamic therapy (PDT) at 14 days after tumor inoculation. PDT consists of intravenously injecting a benzophenothiazine photosensitizer (Dye 4-115)(2.5 mg/kg of body weight) and 1 hr later irradiating the tumor with a broad wavelength light source (600-700 nm) at a power density of 50 mW/cm^2 and a total energy of 100 J/cm^2. Group 2 receives intraperitoneal ovine prolactin (20 mcg/mouse) at 10 hours after light onset starting at 7 days after tumor inoculation and continuing for 14 days. Group 3 receives both PDT (as described above) and prolactin (as described above). Group 4 remains untreated (control). Fourteen days following PDT tumor volume is determined in all animals.

Another series concerns body fat stores. The following applies: cited from earlier work.
For a further series, the system named is tumor burden. In words: Timed prolactin injections in tumor bearing mice. It counts as in vivo. The conditions noted are these: circadian rhythms synchronized with a defined photoperiod; versus tumor bearing mice without timed prolactin injections.
[7] abbreviates: PDT alone (EtNBS 7.5 mg/kg sc, 652 nm, 50 mW/cm^2, 100 J/cm^2).
[8] abbreviates: ip prolactin added to Dye 4-115 PDT.
[9] abbreviates: ip prolactin added to EtNBS PDT.

Some results are limits rather than exact numbers.

Consider `CCNc1cc2sc3cc(=[N+](CC)CC)ccc-3nc2c2ccccc12.[Cl-]` [EtNBS], for which the “tumor volume fourteen days following PDT” value with EMT-6 cells [1] (setting [7]) is on record as “significantly reduced”. In addition, the “tumor "cure" (tumor-free for at least 90 days)” value in series [2] (PDT alone (EtNBS 7.5 mg/kg sc, 652 nm, 50 mW/cm^2, 180 J), 4-8 mm diameter tumors) is 70-100%. In [2] (PDT alone (EtNBS)), the “onset of inflammation of the photoirradiated spot” value was at most 30 min, the “time for noticeable tumor to regress completely” value came out at 14 days, the “time of eschar formation” value is 24 to 48 h and the “time of maximum inflammation” value was in the range of 3 to 5 h. For the same molecule, the “time until inflammation completely subsides” value in [2] (PDT alone (EtNBS)) was in the range of 48 to 72 h. The “tumor volume fourteen days following PDT” value in the series with EMT-6 cells [3] (setting [7]) was “significantly reduced”. Also, in the series on EMT-6 cells [4], the “tumor volume fourteen days following PDT” value was “significantly reduced”.
On to `COc1ccc2[nH]cc(CCNC(C)=O)c2c1` [melatonin], for which the “tumor volume fourteen days following PDT” value is “significantly reduced or entirely eradicated” with EMT-6 cells [1] (EtNBS PDT plus ip melatonin); “significantly reduced” in the series on EMT-6 cells [1] (ip melatonin alone, 8 mg/kg at 10 hours after light onset for 14 days); “significantly reduced or entirely eradicated” in the series on EMT-6 cells [3] (EtNBS PDT plus ip bromocriptine and ip melatonin); “significantly reduced” in the series with EMT-6 cells [3] (ip melatonin 8 mg/kg at 10 hours plus ip bromocriptine 50 mcg/mouse at 0 hours after light onset, no PDT). In addition, the “effect on growth of tumors” value in the series with EMT-6 cells [1] (mice, melatonin at the time when melatonin levels are peaking in healthy mice) is reported as “potent inhibitory effect on growth of tumors”.
Take hematoporphyrin [HPD]: the “dermal photosensitization due to prolonged retention in the skin” value in [5] is reported as “can persist for months”.

B1: prolactin: hormone; prolactin enhancer, given as intraperitoneal ovine prolactin (protein, UniProt P01240 31-229, looked up)
Prolactin: TPVCPNGPGNCQVSLRDLFDRAVMVSHYIHNLSSEMFNEFDKRYAQGKGFITMALNSCHTSSLPTPEDKEQAQQTHHEVLMSLILGLLRSWNDPLYHLVTEVRGMKGVPDAILSRAIEIEEENKRLLEGMEMIFGQVIPGAKETEPYPVWSGLPSLQTKDEDARHSAFYNLLHCLRRDSSKIDTYLKLLNCRIIYNNNC
Regarding B1, the “effect on immune function” value in the series on immune responses is recorded as “immunostimulatory effect”. In addition, the “treated animals exhibiting severe eschar formation” value in [6] (ip ovine prolactin 20 mcg/mouse at 10 hours after light onset added to Dye 4-115 PDT) was 100%. Further, in series [6] (setting [8]), the “time at which the irradiated area will heal completely” value is 4 to 7 days, the “time to complete tumor eradication” value was at most 24 h and the “time to severe eschar formation” value is at most 24 h. In addition, the tumor cure rate in series [2] (ip prolactin 20 mcg/mouse/day at 10 hours after light onset from day of inoculation, added to EtNBS PDT (50 mW/cm^2, 180 J)) was determined as 100%. Moreover, in series [2] (setting [9]), the “time at which the irradiated area has healed completely” value lay in the range of 4 to 7 days, the “time to complete tumor eradication” value was at most 24 h, the “time to severe eschar formation” value is at most 24 h and the “treated animals exhibiting severe eschar formation” value worked out at 100%. Besides, the tumor cure rate in series [2] (mouse models, prolactin at the appropriate time interval combined with PDT) is around 100%. The “increase in body fat levels” value in the series with body fat stores (prolactin injections at midday of a 16-hour daily photoperiod) is recorded as 3 fold. The “reduction of fat stores” value with body fat stores (prolactin injections given early in the photoperiod) is on record as 50%. For the same molecule, the tumor burden result in the series with tumor burden is listed as “decreased tumor burden”.
